Results: ChEMBL document CHEMBL1140244, “Carbonic anhydrase inhibitors. Synthesis and inhibition of cytosolic/tumor-associated carbonic anhydrase isozymes I, II, and IX with boron-containing sulfonamides, sulfamides, and sulfamates: toward agents for boron neutron capture therapy of hypoxic tumors” (Bioorg Med Chem Lett, 2005)

Target: Carbonic anhydrase 1 (Homo sapiens, UniProt P00915)
Sequence (P00915 whole entry): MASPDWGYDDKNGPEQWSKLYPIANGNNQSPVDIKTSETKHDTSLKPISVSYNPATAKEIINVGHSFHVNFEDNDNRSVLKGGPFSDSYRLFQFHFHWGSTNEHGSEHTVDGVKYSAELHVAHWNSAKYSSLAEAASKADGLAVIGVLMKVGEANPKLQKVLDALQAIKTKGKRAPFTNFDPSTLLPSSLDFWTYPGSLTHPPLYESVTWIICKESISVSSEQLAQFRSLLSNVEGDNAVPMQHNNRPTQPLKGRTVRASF

SMILES | Ki [nM]
CC1(C)OB(c2ccc(NC(=S)Nc3cccc(S(N)(=O)=O)c3)cc2)OC1(C)C | 70
CC1(C)OB(c2ccc(N/C(S)=N/c3ccc(S(=O)(=O)Nc4ccc(S(N)(=O)=O)cc4)cc3)cc2)OC1(C)C | 49
CC1(C)OB(c2ccc(NS(N)(=O)=O)cc2)OC1(C)C | 92
CC1(C)OB(c2ccc(C(=O)Nc3nnc(S(N)(=O)=O)s3)cc2)OC1(C)C | 36
CC1(C)OB(c2ccc(N/C(S)=N/c3ccc(S(N)(=O)=O)cc3Cl)cc2)OC1(C)C | 70.5
CC1(C)OB(c2ccc(C(=O)Nc3ccc(S(N)(=O)=O)cc3)cc2)OC1(C)C | 70
CC1(C)OB(c2ccc(NC(=S)Nc3ccc(S(N)(=O)=O)cc3)cc2)OC1(C)C | 69
CC1(C)OB(c2ccc(NC(=S)Nc3ccc(S(N)(=O)=O)cc3I)cc2)OC1(C)C | 91

Continued by falling Ki, values first:

Ki [nM] | SMILES
94 | CC1(C)OB(c2ccc(OS(N)(=O)=O)cc2)OC1(C)C
77 | CC1(C)OB(c2ccc(N/C(S)=N/c3ccc(S(N)(=O)=O)cc3F)cc2)OC1(C)C
72 | CC1(C)OB(c2ccc(NC(=S)Nc3ccc(S(N)(=O)=O)cc3Br)cc2)OC1(C)C
70 | CC1(C)OB(c2ccc(C(=O)NCCc3ccc(S(N)(=O)=O)cc3)cc2)OC1(C)C
69 | CC1(C)OB(c2ccc(C(=O)NCc3ccc(S(N)(=O)=O)cc3)cc2)OC1(C)C
34 | CC1(C)OB(c2ccc(NC(=S)Nc3ccc(S(=O)(=O)Nc4nnc(S(N)(=O)=O)s4)cc3)cc2)OC1(C)C

Target: Carbonic anhydrase 2 (Homo sapiens, UniProt P00918)

SMILES | Ki [nM]
CC1(C)OB(c2ccc(NC(=S)Nc3cccc(S(N)(=O)=O)c3)cc2)OC1(C)C | 5.5
CC1(C)OB(c2ccc(N/C(S)=N/c3ccc(S(=O)(=O)Nc4ccc(S(N)(=O)=O)cc4)cc3)cc2)OC1(C)C | 6.3
CC1(C)OB(c2ccc(C(=O)Nc3nnc(S(N)(=O)=O)s3)cc2)OC1(C)C | 3.1
CC1(C)OB(c2ccc(N/C(S)=N/c3ccc(S(N)(=O)=O)cc3Cl)cc2)OC1(C)C | 5
CC1(C)OB(c2ccc(C(=O)Nc3ccc(S(N)(=O)=O)cc3)cc2)OC1(C)C | 5.2
CC1(C)OB(c2ccc(NC(=S)Nc3ccc(S(N)(=O)=O)cc3)cc2)OC1(C)C | 5.1
CC1(C)OB(c2ccc(NC(=S)Nc3ccc(S(N)(=O)=O)cc3I)cc2)OC1(C)C | 9.8

Now from value to molecule:

Ki [nM] | SMILES
32 | CC1(C)OB(c2ccc(OS(N)(=O)=O)cc2)OC1(C)C
5.1 | CC1(C)OB(c2ccc(N/C(S)=N/c3ccc(S(N)(=O)=O)cc3F)cc2)OC1(C)C
5.1 | CC1(C)OB(c2ccc(NC(=S)Nc3ccc(S(N)(=O)=O)cc3Br)cc2)OC1(C)C
5.1 | CC1(C)OB(c2ccc(C(=O)NCCc3ccc(S(N)(=O)=O)cc3)cc2)OC1(C)C
5.4 | CC1(C)OB(c2ccc(C(=O)NCc3ccc(S(N)(=O)=O)cc3)cc2)OC1(C)C
5.1 | CC1(C)OB(c2ccc(NC(=S)Nc3ccc(S(=O)(=O)Nc4nnc(S(N)(=O)=O)s4)cc3)cc2)OC1(C)C

Target: Carbonic anhydrase 9 (Homo sapiens, UniProt Q16790)

SMILES | Ki [nM]
CC1(C)OB(c2ccc(NC(=S)Nc3cccc(S(N)(=O)=O)c3)cc2)OC1(C)C | 81
CC1(C)OB(c2ccc(N/C(S)=N/c3ccc(S(=O)(=O)Nc4ccc(S(N)(=O)=O)cc4)cc3)cc2)OC1(C)C | 84
CC1(C)OB(c2ccc(NS(N)(=O)=O)cc2)OC1(C)C | 81
CC1(C)OB(c2ccc(C(=O)Nc3nnc(S(N)(=O)=O)s3)cc2)OC1(C)C | 7.6
CC1(C)OB(c2ccc(N/C(S)=N/c3ccc(S(N)(=O)=O)cc3Cl)cc2)OC1(C)C | 81
CC1(C)OB(c2ccc(C(=O)Nc3ccc(S(N)(=O)=O)cc3)cc2)OC1(C)C | 53
CC1(C)OB(c2ccc(NC(=S)Nc3ccc(S(N)(=O)=O)cc3)cc2)OC1(C)C | 80
CC1(C)OB(c2ccc(NC(=S)Nc3ccc(S(N)(=O)=O)cc3I)cc2)OC1(C)C | 9.3

Further lines, results first:

Ki [nM] | SMILES
80 | CC1(C)OB(c2ccc(OS(N)(=O)=O)cc2)OC1(C)C
10.1 | CC1(C)OB(c2ccc(N/C(S)=N/c3ccc(S(N)(=O)=O)cc3F)cc2)OC1(C)C
89 | CC1(C)OB(c2ccc(NC(=S)Nc3ccc(S(N)(=O)=O)cc3Br)cc2)OC1(C)C
42 | CC1(C)OB(c2ccc(C(=O)NCCc3ccc(S(N)(=O)=O)cc3)cc2)OC1(C)C
7.3 | CC1(C)OB(c2ccc(NC(=S)Nc3ccc(S(=O)(=O)Nc4nnc(S(N)(=O)=O)s4)cc3)cc2)OC1(C)C
